Measured values taken from US7297700B2, “Bicycloheteroaryl compounds as P2X7 modulators and uses thereof” (Renovis, Inc., priority 2005, dated 2007).

tested on: IL-1β release from THP-1 cells; assay: IL-1β Release Assay (Alternate Method), THP-1 cells; assay type: cell-based, human; settings: Homo sapiens; at 0.3 μM; THP-1 cells; read-out: IL-1β % inhibition
Procedure: THP-1 cells (ATCC Cat #285-IF-100) are plated in 96 well plates at a concentration of 200,000 cells per well and allowed to differentiate in RPMI-1640 media (ATCC Cat #30-2001) containing 10% FBS, 100 IU/mL penicillin, 100 ug/mL streptomycin, 100 ng/mL LPS and 100 ng/mL IFN-γ for 16 hours. Following differentiation, the cells are treated for an additional 2 hours in RPMI-1640 media containing 100 IU/mL penicillin, 100 ug/mL streptomycin and fresh LPS at 100 ng/mL. The cells are then pretreated for 30 minutes with the compound of interest at the appropriate concentration in RPMI media containing 100 IU/mL penicillin, 100 ug/mL streptomycin. Following the pretreatment 2′, 3′-O-(4-benzoylbenzoyl)-adenosine 5′-triphosphate (Sigma Aldrich Cat#B6396) is added to a final concentration of 250 uM and the cells incubated for an additional 45 minutes. 30 uL of cell supernatant is then collected and IL-1β levels determined via ELISA (R&D systems Cat. #HSLB50) according to manufacturer's recommendations using the Tecan Safire plate reader. Background adjusted IL-1β levels of drug treated and non-treated cells are used to calculate the percent inhibition.

SMILES | inhibition at 0.3 µM [%]
CC(C)(C(=O)Nc1ncnc2c1CCN(C(=O)c1c(F)cccc1F)C2)C12CC3CC(CC(C3)C1)C2 [Compound 361] | 0 to 25
O=C(CC12CC3CC(CC(C3)C1)C2)Nc1ncnc2c1CCN(C(=O)c1ccccc1)C2 [Compound 220] | > 75

same assay, conditions: at 0.3 μM; THP-1 cells

SMILES | IL-1β % inhibition
COc1ccc(S(=O)(=O)N2CCc3c(ncnc3NC(=O)CC34CC5CC(CC(C5)C3)C4)C2)c(OC)c1 [Compound 197] | ++++ (compound exhibited 75% or greater inhibition at 0.3 μM)
O=C(CC12CC3CC(CC(C3)C1)C2)Nc1ncnc2c1CCN(S(=O)(=O)Cc1cc(C(F)(F)F)cc(C(F)(F)F)c1)C2 [Compound 182] | +++ (compound exhibited 50-75% inhibition at 0.3 μM)
O=C(CC12CC3CC(CC(C3)C1)C2)Nc1ncnc2c1CCN(C(=O)c1ccc(Cl)nc1)C2 [Compound 281] | + (compound exhibited 0-25% inhibition at 0.3 μM)
O=C(CC12CC3CC(CC(C3)C1)C2)Nc1ncnc2c1CCN(Cc1ccc3c(c1)OCO3)C2 [Compound 321] | ++++ (compound exhibited 75% or greater inhibition at 0.3 μM)
N#Cc1ccc(C(=O)N2CCc3c(ncnc3NC(=O)CC34CC5CC(CC(C5)C3)C4)C2)cc1 [Compound 257] | + (compound exhibited 0-25% inhibition at 0.3 μM)
Cc1nn(C)c(Cl)c1S(=O)(=O)N1CCc2c(ncnc2NC(=O)CC23CC4CC(CC(C4)C2)C3)C1 [Compound 158] | + (compound exhibited 0-25% inhibition at 0.3 μM)
O=C(CC1CCCCCC1)Nc1ncnc2c1CCN(Cc1c[nH]cn1)C2 [Compound 126] | + (compound exhibited 0-25% inhibition at 0.3 μM)
O=C(CC12CC3CC(CC(C3)C1)C2)Nc1ncnc2c1CCN(S(=O)(=O)Cc1ccc(C(F)(F)F)cc1)C2 [Compound 183] | ++ (compound exhibited 25-50% inhibition at 0.3 μM)
O=C(CC12CC3CC(CC(C3)C1)C2)Nc1ncnc2c1CCN(Cc1cccc(OC(F)(F)F)c1)C2 [Compound 114] | + (compound exhibited 0-25% inhibition at 0.3 μM)
O=C(CC12CC3CC(CC(C3)C1)C2)Nc1ncnc2c1CCN(S(=O)(=O)c1cc(C(F)(F)F)ccc1Cl)C2 [Compound 181] | ++ (compound exhibited 25-50% inhibition at 0.3 μM)
CC12CC3CC(C)(C1)CC(CC(=O)Nc1ncnc4c1CCN(Cc1ccccc1F)C4)(C3)C2 [Compound 371] | +++ (compound exhibited 50-75% inhibition at 0.3 μM)
O=C(CC12CC3CC(CC(C3)C1)C2)Nc1ncnc2c1CCN(CC1CCCCC1)C2 [Compound 122] | + (compound exhibited 0-25% inhibition at 0.3 μM)

same assay, conditions: at 0.3 μM; THP-1 cells, BzATP-stimulated

SMILES | IL-1β % inhibition
O=C(Nc1ncnc2c1CCN(S(=O)(=O)Cc1ccc(Cl)cc1)C2)C12CC3CC(CC(C3)C1)C2 [Compound 522] | +++ (compound exhibited 50-75% inhibition at 0.3 μM)
O=C(Nc1ncnc2c1CCN(Cc1ccc(Cl)cc1Cl)C2)C12CC3CC(CC(C3)C1)C2 [Compound 570] | ++ (compound exhibited 25-50% inhibition at 0.3 μM)
O=C(Nc1ncnc2c1CCN(S(=O)(=O)Cc1ccccc1)C2)C12CC3CC(CC(C3)C1)C2 [Compound 491] | + (compound exhibited 0-25% inhibition at 0.3 μM)
O=C(c1cc(F)cc(C(F)(F)F)c1)N1CCc2c(ncnc2NC(=O)C23CC4CC(CC(C4)C2)C3)C1 [Compound 439] | ++ (compound exhibited 25-50% inhibition at 0.3 μM)
Cc1cccc(CN2CCc3c(ncnc3NC(=O)C34CC5CC(CC(C5)C3)C4)C2)c1 [Compound 606] | + (compound exhibited 0-25% inhibition at 0.3 μM)
CC(C)(C)C(=O)N1CCc2c(ncnc2NC(=O)C23CC4CC(CC(C4)C2)C3)C1 [Compound 424] | + (compound exhibited 0-25% inhibition at 0.3 μM)
O=C(COc1ccc(Cl)cc1)N1CCc2c(ncnc2NC(=O)C23CC4CC(CC(C4)C2)C3)C1 [Compound 436] | ++ (compound exhibited 25-50% inhibition at 0.3 μM)
Cc1ccc(CN2CCc3c(ncnc3NC(=O)C34CC5CC(CC(C5)C3)C4)C2)cc1 [Compound 602] | ++ (compound exhibited 25-50% inhibition at 0.3 μM)
